Reference: patent US9023844B2, “Heterocyclylpyri (mi) dinylpyrazole as fungicidals” (Bayer Intellectual Property GmbH, priority 2011, dated 2015)
Where two headings read alike, the source gives them in different places.

How the values were obtained:
Pyrenophora teres = experiment: Example D: Pyrenophora test (barley) / preventive; assay type: in vivo
Fusarium graminearum [1] = assay type: in vivo
Sphaerotheca fuliginea = experiment: Example A: Sphaerotheca test (cucumber) / preventive; assay type: in vivo
Puccinia recondita = experiment: Example E: Puccinia test (wheat) / preventive; assay type: in vivo
[2] = Determination of log P values by HPLC on a reverse phase column (C18), EEC-Directive 79/831 Annex V.A8 (Methods A, B, C); assay type: physicochemical; details: for chromatographic logP: reverse phase C18 HPLC column
Summary of the method: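 LogP was determined by C18 reverse-phase HPLC/UPLC with acetonitrile/water eluents containing formic acid. Method A used a 10–95% acetonitrile gradient over 4.25 min at 55 °C and 2.0 mL/min. Method B used 5–95% over 1.70 min at 55 °C and 2.0 mL/min, and Method C used 10–95% over 3.25 min at 40 °C and 0.8 mL/min, with MS detection.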

[3] = system: Fusarium nivale (var. majus); experiment: Example K: Fusarium nivale (var. majus) test (wheat) / preventive; assay type: in vivo; details: 500 ppm of active ingredient, preventive spray, evaluated 5 days after inoculation
Method: After the spray coating has been dried, the plants are slightly injured by using a sandblast and afterwards they are sprayed with a conidia suspension of Fusarium nivale (var. majus).
The test is evaluated 5 days after the inoculation.

Pyricularia oryzae = assay type: in vivo
Fusarium graminearum [4] = experiment: microbe, parasite or virus in culture; assay type: cell-based
Leptosphaeria nodorum = experiment: Example C: Leptosphaeria test (wheat) / preventive; assay type: in vivo; details: in vivo
Phytophthora infestans = assay type: in vivo
Septoria tritici = experiment: Example J: Septoria tritici test (wheat) / preventive; assay type: in vivo
[5] = system: DON/Acetyl-DON production by Fusarium graminearum; experiment: microbe, parasite or virus in culture; assay type: cell-based
Venturia inaequalis = experiment: Example I: Venturia test (apples) / preventive; details: 100 ppm of active ingredient, preventive spray, evaluated 10 days after inoculation
Method: After the spray coating has dried on, the plants are inoculated with an aqueous conidia suspension of the causal agent of apple scab (Venturia inaequalis) and then remain for 1 day in an incubation cabinet at approximately 20° C. and a relative atmospheric humidity of 100%.
The plants are then placed in a greenhouse at approximately 21° C. and a relative atmospheric humidity of approximately 90%.
The test is evaluated 10 days after the inoculation.

Plasmopara viticola = experiment: Example H: Plasmopara test (grapevines) / preventive; assay type: in vivo
Uromyces appendiculatus = experiment: Example B: Uromyces test (beans) / preventive; assay type: in vivo; details: in vivo
[6] = Method B (HPLC, reverse phase C18)
[7] = Method C (HPLC, reverse phase C18)
[8] = Method A: HPLC, reverse phase C18, acetonitrile (0.1% formic acid)/water (0.09% formic acid) gradient

SMILES	efficacy (Pyrenophora teres; in vivo)	efficacy (Fusarium graminearum [1]; in vivo)	efficacy (Sphaerotheca fuliginea; in vivo)	efficacy (Puccinia recondita; in vivo)	LogP [2, 6]	efficacy [3]	efficacy (Pyricularia oryzae; in vivo)	Growth inhibition of Fusarium graminearum in % (Fusarium graminearum [4]; at 50 μM)	efficacy (Leptosphaeria nodorum)	efficacy (Phytophthora infestans; in vivo)	efficacy (Septoria tritici; in vivo)	Inhibition of DON/AcDON in % ([5]; at 50 μM)	efficacy (Venturia inaequalis)	efficacy (Plasmopara viticola; in vivo)	efficacy (Uromyces appendiculatus)	further results
CC(C)C(=O)Nc1cc(-c2c(-c3ccc(F)cc3)nn3c2OCCC3)ccn1 [Example 22]	95%	100%	100%	100%	1.54	100%	94%	99%	90%	95%	100%	100%	99%	100%	94%	–
CC(=O)Nc1cc(-c2c(-c3cccs3)nn3c2OC[Si](C)(C)C3)ccn1 [Example 85]	95%	71%	–	78%	–	100%	90%	–	90%	95%	86%	–	97%	97%	–	LogP [2, 7]: 1.74; Inhibition of DON/AcDON in % ([5]; 50 µM): 99%
CC(C)CC(=O)Nc1cc(-c2c(-c3ccc(F)cc3)nn3c2OCCC3)ccn1 [Example 25]	100%	100%	100%	100%	1.82	100%	100%	–	95%	93%	80%	–	100%	98%	94%	–
CC(C)C(=O)Nc1cc(-c2c(-c3ccc(F)cc3)nn3c2OCCC3C)ccn1 (stereo not drawn) [Example 62]	95%	100%	100%	90%	–	100%	95%	86%	–	95%	75%	99%	100%	100%	78%	LogP [2, 8]: 1.86
CCC(=O)Nc1cc(-c2c(-c3cccs3)nn3c2OC[Si](C)(C)C3)ccn1 [Example 82]	95%	–	–	70%	–	–	70%	100%	–	85%	–	100%	94%	100%	–	LogP [2, 7]: 1.81
CC(C)C(=O)Nc1cc(-c2c(-c3ccccc3)nn3c2OCCC3)ccn1 [Example 8]	95%	100%	100%	100%	1.39	93%	94%	–	95%	95%	80%	–	98%	100%	94%	–
CC(C)C(=O)Nc1cc(-c2c(-c3ccc(F)cc3F)nn3c2OCCC3)ccn1 [Example 37]	95%	100%	100%	100%	1.6	100%	94%	–	70%	95%	88%	–	100%	100%	94%	–
CCC(=O)N(C(=O)C1CC1)c1cc(-c2c(-c3ccc(F)cc3)nn3c2OCCC3)ccn1 [Example 54]	95%	100%	100%	95%	–	100%	90%	–	80%	99%	100%	–	95%	100%	–	LogP [2, 8]: 2.77
CCC(=O)Nc1cc(-c2c(-c3ccc(F)cc3)nn3c2OC[Si](C)(C)C3)ccn1 [Example 77]	95%	100%	95%	100%	–	90%	90%	–	94%	100%	71%	–	96%	100%	94%	LogP [2, 7]: 2.15; Growth inhibition of Fusarium graminearum in % (Fusarium graminearum [4]; 50 µM): 91%; Inhibition of DON/AcDON in % ([5]; 50 µM): 100%
CCC(=O)Nc1cc(-c2c(-c3ccc(F)cc3)nn3c2OCCC3C)ccn1 (stereo not drawn) [Example 63, N-{4-[2-(4-fluorophenyl)-7-methyl-6,7-dihydro-5H-pyrazolo[5,1-b][1,3]oxazin-3-yl]pyridin-2-yl}propanamide]	–	–	–	–	–	100%	–	–	–	–	–	–	100%	–	–	efficacy (Pyrenophora teres; 500 ppm of active ingredient, barley, preventive spray, evaluated 7-9 days after inoculation): 100%; efficacy (Fusarium graminearum [1]; 500 ppm of active ingredient, barley, preventive spray, evaluated 5 days after inoculation): 88%; efficacy (Sphaerotheca fuliginea; 500 ppm of active ingredient, cucumber, preventive spray, evaluated 7 days after inoculation): 95%; efficacy (Puccinia recondita; 500 ppm of active ingredient, wheat, preventive spray, evaluated 7-9 days after inoculation): 80%; chromatographic logP ([2]; Method A: HPLC, reverse phase C18, acetonitrile (0.1% formic acid)/water (0.09% formic acid) gradient, read-out: LogP): 1.61; chromatographic logP ([2]; pH 2.7, values in the synthesis examples, HPLC, reverse phase C18, read-out: log P (pH 2.7)): 1.61; efficacy (Pyricularia oryzae; 500 ppm of active ingredient, rice, preventive spray, evaluated 7 days after inoculation): 95%; efficacy (Phytophthora infestans; 100 ppm of active ingredient, tomatoes, preventive spray, evaluated 3 days after inoculation): 95%; efficacy (Septoria tritici; 500 ppm of active ingredient, wheat, preventive spray, evaluated 21 days after inoculation): 94%; efficacy (Plasmopara viticola; 100 ppm of active ingredient, grapevines, preventive spray, evaluated 6 days after inoculation): 95%
CCC(=O)Nc1cc(-c2c(-c3ccccc3)nn3c2OCCC3)ccn1 [Example 6]	95%	100%	98%	100%	1.16	100%	94%	–	90%	96%	100%	–	100%	94%	89%	–
CC(C)C(=O)Nc1cc(-c2c(-c3cccs3)nn3c2OC[Si](C)(C)C3)ccn1 [Example 86]	90%	–	–	95%	–	–	80%	100%	–	98%	–	99%	100%	100%	94%	LogP [2, 7]: 2.28
O=C(CC(F)(F)F)Nc1cc(-c2c(-c3ccccc3)nn3c2OCCC3)ccn1 [Example 17]	95%	–	–	100%	1.98	100%	94%	–	–	95%	–	–	100%	100%	94%	–
CCC(=O)N(C(C)=O)c1cc(-c2c(-c3ccc(F)cc3)nn3c2OCCC3)ccn1 [Example 52]	95%	100%	95%	95%	–	100%	95%	–	80%	95%	100%	–	98%	84%	–	LogP [2, 8]: 2.4
CCC(=O)Nc1cc(-c2c(-c3ccc(F)cc3F)nn3c2OCCC3)ccn1 [Example 35]	95%	100%	–	100%	1.34	100%	94%	100%	80%	99%	100%	99%	100%	95%	92%	–
